# Data taken from patent US20250213555A1, “SUBSTITUTED TETRAHYDROFURAN ANALOGS AS MODULATORS OF SODIUM CHANNELS” (VERTEX PHARMACEUTICALS INCORPORATED, priority 2021, published 2025).
# Target: human Nav 1.8 (Homo sapiens, UniProt Q9Y5Y9)
# Test: E-VIPR assay detecting and measuring Nav inhibition properties
# Format: cell-based
# Settings: HEK cells expressing a truncated form of human Nav 1.8; compound numbers without "*" (not marked as run in the presence of human serum); read-out: measured IC50 value in the E-VIPR Assay
# Excerpt: E-VIPR Assay Detecting and Measuring Nav Inhibition Properties
# Sodium ion channels are voltage-dependent proteins that can be activated by inducing membrane voltage changes by applying electric fields. The electrical stimulation instrument and methods of use, referred to as E-VIPR, are described in International Publication No. WO 2002/008748 A3 and C.-J. Huang et al. Characterization of voltage-gated sodium channel blockers by electrical stimulation and fluorescence detection of membrane potential, 24 Nature Biotech. 439-46 (2006), both of which are incorporated by reference in their entirety. The instrument comprises a microtiter plate handler, an optical system for exciting the coumarin dye while simultaneously recording the coumarin and oxonol emissions, a waveform generator, a current- or voltage-controlled amplifier, and parallel electrode pairs that are inserted into assay plate wells. Under integrated computer control, this instrument passes user-programmed electrical stimulus protocols to cells within the wells of the microtiter plate.
# 16-20 hours prior to running the assay on E-VIPR, HEK cells expressing a truncated form of human Nav 1.8 with full channel activity were seeded into microtiter 384-well plates, pre-coated with matrigel, at a density of 25,000 cells per well. 2.5-5% KIR2.1 Bacmam virus was added to the final cell suspension before seeding into cell plates. HEK cells were grown in Dulbecco's Modified Eagle's Medium (DMEM) supplemented with 10% FBS (Fetal Bovine Serum, qualified; Sigma #F4135), 1% NEAA (Non-Essential Amino Acids, Gibco #11140), 1% HEPES (Gibco #15630), 1% Pen-Strep (Penicillin-Streptomycin; Gibco #15140) and 5 μg/ml Blasticidin (Gibco #R^210-01). Cells were expanded in vented cap cell culture flasks, with 90-95% humidity and 5% CO2.
# 100 mg/mL Pluronic F-127 (Sigma #P2443), in dry DMSO
# Compound Plates: Corning 384-well Polypropylene Round Bottom #3656
# Cell Plates: 384-well tissue culture treated plates (Greiner #781091-2B)
# 2.5-5% KIR 2.1 Bacmam virus (produced in-house), prepared as described in Section 3.3 of J. A. Fornwald et al., Gene Expression in Mammalian Cells Using BacMam, a Modified Baculovirus System, 1350 Methods in Molecular Biology 95-116 (2016), the entire contents of which are incorporated by reference. The concentration used can be dependent on viral titer of each batch.
# 5 mM DiSBAC6(3), a voltage sensitive oxonol acceptor (CAS number 169211-44-3; 5-[3-(1,3-dihexylhexahydro-4,6-dioxo-2-thioxo-5-pyrimidinyl)-2-propen-1-ylidene]-1,3-dihexyldihydro-2-thioxo-4,6 (1H,5H)-pyrimidinedione), in dry DMSO. The preparation of DiSBAC6(3) is analogous to that of DiSBAC4(3) as described in Voltage Sensing by Fluorescence Resonance Energy Transfer in Single Cells, Gonzalez, J. E. and Tsien, R. Y. (1995) Biophys. J. 69, 1272-1280.
# 5 mM CC2-DMPE, a commercially available membrane-bound coumarin phospholipid FRET donor (ThermoFisher Scientific catalog number K1017, CAS number 393782-57-5; tetradecanoic acid, 1,1′-[(1R)-1-[8-(6-chloro-7-hydroxy-2-oxo-2H-1-benzopyran-3-yl)-3-hydroxy-3-oxido-8-oxo-2,4-dioxa-7-aza-3-phosphaoct-1-yl]-1,2-ethanediyl] ester) was prepared in dry DMSO. See also, Improved indicators of cell membrane potential that use fluorescence resonance energy transfer, Gonzalez, J. E. and Tsien, R. Y. (1997) Chem. Biol. 4, 269-277.
# Voltage Assay Background Suppression Compound (VABSC-1) is prepared in H2O (89-363 mM, range used to maintain solubility)
# Human Serum (HS, Millipore #S1P1-01KL, or Sigma SLBR5469V and SLBR5470V as a 50%/50% mixture, for 25% assay final concentration)
# • Sodium Chloride 160 mM (9.35 g/L), Potassium Chloride, 4.5 mM (0.335 g/L), Glucose 10 mM (1.8 g/L), Magnesium Chloride (Anhydrous) 1 mM (0.095 g/L), Calcium Chloride 2 mM (0.222 g/L), HEPES 10 mM (2.38 g/L) in water. […]
# human Nav 1.8, sequence (Q9Y5Y9 126-399 limits assumed): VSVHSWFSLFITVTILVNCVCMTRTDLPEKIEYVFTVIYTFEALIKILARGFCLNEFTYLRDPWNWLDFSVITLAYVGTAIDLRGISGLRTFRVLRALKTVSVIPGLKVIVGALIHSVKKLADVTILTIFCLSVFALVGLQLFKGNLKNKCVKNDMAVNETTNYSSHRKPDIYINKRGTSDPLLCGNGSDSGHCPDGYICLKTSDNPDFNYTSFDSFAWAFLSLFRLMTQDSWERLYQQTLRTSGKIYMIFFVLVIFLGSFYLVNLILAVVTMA
# human Nav 1.8, sequence (Q9Y5Y9 660-890 limits assumed): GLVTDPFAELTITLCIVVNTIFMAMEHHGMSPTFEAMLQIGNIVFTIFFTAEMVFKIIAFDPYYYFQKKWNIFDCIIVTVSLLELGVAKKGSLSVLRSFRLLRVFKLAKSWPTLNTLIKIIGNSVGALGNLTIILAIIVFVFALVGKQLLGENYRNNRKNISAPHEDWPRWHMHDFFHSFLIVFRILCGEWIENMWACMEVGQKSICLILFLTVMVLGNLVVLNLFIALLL
# human Nav 1.8, sequence (Q9Y5Y9 1148-1722 limits assumed): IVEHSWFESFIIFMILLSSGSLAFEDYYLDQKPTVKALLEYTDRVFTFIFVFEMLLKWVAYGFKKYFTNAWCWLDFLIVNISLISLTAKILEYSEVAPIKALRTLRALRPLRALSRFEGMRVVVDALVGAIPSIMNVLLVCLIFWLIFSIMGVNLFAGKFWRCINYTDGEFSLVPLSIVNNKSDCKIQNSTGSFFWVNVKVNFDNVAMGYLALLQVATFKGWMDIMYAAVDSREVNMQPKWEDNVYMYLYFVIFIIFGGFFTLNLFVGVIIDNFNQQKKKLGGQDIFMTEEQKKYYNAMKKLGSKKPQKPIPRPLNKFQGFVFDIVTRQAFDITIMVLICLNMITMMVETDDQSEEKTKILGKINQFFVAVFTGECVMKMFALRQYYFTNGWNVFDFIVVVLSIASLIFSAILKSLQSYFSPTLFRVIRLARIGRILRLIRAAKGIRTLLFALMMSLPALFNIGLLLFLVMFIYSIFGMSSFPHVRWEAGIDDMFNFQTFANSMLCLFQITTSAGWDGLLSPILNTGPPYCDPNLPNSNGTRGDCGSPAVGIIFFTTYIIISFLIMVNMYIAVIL
row,IC50 [nM],Structure (SMILES)
1,< 10,"C[C@H]1[C@@H](c2ccc(F)c(F)c2OCc2cn[nH]c2)[C@H](C(=O)Nc2ccnc(C(N)=O)c2)O[C@@]1(C)C(F)(F)F [Compound 168, 4-((2R,3S,4S,5R)-3-(2-((1H-pyrazol-4-yl)methoxy)-3,4-difluorophenyl)-4,5-dimethyl-5-(trifluoromethyl)tetrahydrofuran-2-carboxamido)picolinamide]"
2,< 10,"COc1c([C@H]2[C@H](C(=O)Nc3ccnc(C(=O)N4CC5(CN(C)C5)C4)c3)O[C@@](C)(C(F)(F)F)[C@H]2C)ccc(F)c1F [Compound 268, (2R,3S,4S,5R)-3-(3,4-difluoro-2-methoxyphenyl)-4,5-dimethyl-N-(2-(6-methyl-2,6-diazaspiro[3.3]heptane-2-carbonyl)pyridin-4-yl)-5-(trifluoromethyl)tetrahydrofuran-2-carboxamide]"
3,< 10,"COc1c([C@H]2[C@H](C(=O)Nc3ccnc(C(=O)N4C[C@H](OC)[C@@H](N(C)C)C4)c3)O[C@@](C)(C(F)(F)F)[C@H]2C)ccc(F)c1F [Compound 293, (2R,3S,4S,5R)-3-(3,4-difluoro-2-methoxyphenyl)-N-(2-((3S,4S)-3-(dimethylamino)-4-methoxypyrrolidine-1-carbonyl)pyridin-4-yl)-4,5-dimethyl-5-(trifluoromethyl)tetrahydrofuran-2-carboxamide]"
4,100 to 1000,"CC(C)NCCOc1c([C@H]2[C@H](C(=O)Nc3ccnc(C(N)=O)c3)O[C@@](C)(C(F)(F)F)[C@H]2C)ccc(F)c1F [Compound 115, 4-((2R,3S,4S,5R)-3-(3,4-difluoro-2-(2-(isopropylamino)ethoxy)phenyl)-4,5-dimethyl-5-(trifluoromethyl)tetrahydrofuran-2-carboxamido)picolinamide]"
5,10 to 100,"CCO[C@H]1CNC[C@@H]1NC(=O)c1cc(NC(=O)[C@@H]2O[C@@](C)(C(F)(F)F)[C@@H](C)[C@H]2c2ccc(F)c(F)c2OC)ccn1 [Compound 253, 4-((2R,3S,4S,5R)-3-(3,4-difluoro-2-methoxyphenyl)-4,5-dimethyl-5-(trifluoromethyl)tetrahydrofuran-2-carboxamido)-N-((3S,4S)-4-ethoxypyrrolidin-3-yl)picolinamide]"
6,10 to 100,"COc1c([C@H]2[C@H](C(=O)Nc3cc(C(=O)N4CCNCC4)ccn3)O[C@@](C)(C(F)(F)F)[C@H]2C)ccc(F)c1F [Compound 18, (2R,3S,4S,5R)-3-(3,4-difluoro-2-methoxyphenyl)-4,5-dimethyl-N-(4-(piperazine-1-carbonyl)pyridin-2-yl)-5-(trifluoromethyl)tetrahydrofuran-2-carboxamide]"

# Continued, molecule first:
row,Structure (SMILES),IC50 [nM]
1,"COc1c([C@H]2[C@H](C(=O)Nc3ccnc(C(=O)N(C)[C@@H]4CCN(C)C4)c3)O[C@@](C)(C(F)(F)F)[C@H]2C)ccc(F)c1F [Compound 269, 4-((2R,3S,4S,5R)-3-(3,4-difluoro-2-methoxyphenyl)-4,5-dimethyl-5-(trifluoromethyl)tetrahydrofuran-2-carboxamido)-N-methyl-N-((R)-1-methylpyrrolidin-3-yl)picolinamide]",< 10
2,"COCC(CO)COc1c([C@H]2[C@H](C(=O)Nc3ccnc(C(N)=O)c3)O[C@@](C)(C(F)(F)F)[C@H]2C)ccc(F)c1F (stereo partly drawn) [Compound 155, 4-((2R,3S,4S,5R)-3-(3,4-difluoro-2-(3-hydroxy-2-(methoxymethyl)propoxy)phenyl)-4,5-dimethyl-5-(trifluoromethyl)tetrahydrofuran-2-carboxamido) picolinamide]",10 to 100
3,"COc1c([C@H]2[C@H](C(=O)Nc3cc(C(=O)N4CCNCC4)ncc3F)O[C@@](C)(C(F)(F)F)[C@H]2C)ccc(F)c1F [Compound 16, (2R,3S,4S,5R)-3-(3,4-difluoro-2-methoxy-phenyl)-N-[5-fluoro-2-(piperazine-1-carbonyl)-4-pyridyl]-4,5-dimethyl-5-(trifluoromethyl)tetrahydrofuran-2-carboxamide]",10 to 100
4,"CC1C(c2ccc(F)c(F)c2OC2CC(O)C2)C(C(=O)Nc2ccnc(C(N)=O)c2)OC1(C)C(F)(F)F [Compound 166, 4-((2R,3S,4S,5R)-3-(3,4-difluoro-2-((1s,3R)-3-hydroxycyclobutoxy)phenyl)-4,5-dimethyl-5-(trifluoromethyl)tetrahydrofuran-2-carboxamido)picolinamide]",< 10
5,"COCCOc1c([C@@H]2[C@@H](C(=O)Nc3ccnc(C(N)=O)c3)O[C@](C)(C(F)(F)F)[C@@H]2C)ccc(F)c1F (stereo in doubt) [Compound 1, rel-4-((2S,3R,4R,5S)-3-(3,4-difluoro-2-(2-methoxyethoxy)phenyl)-4,5-dimethyl-5-(trifluoromethyl)tetrahydrofuran-2-carboxamido) picolinamide]",100 to 1000
6,"C[C@H]1[C@@H](c2ccc(F)c(F)c2OCCN2C[C@H]3COC[C@H]3C2)[C@H](C(=O)Nc2ccnc(C(N)=O)c2)O[C@@]1(C)C(F)(F)F [Compound 55, 4-((2R,3S,4S,5R)-3-(3,4-difluoro-2-(2-((3aR,6aS)-tetrahydro-1H-furo[3,4-c]pyrrol-5(3H)-yl)ethoxy)phenyl)-4,5-dimethyl-5-(trifluoromethyl)tetrahydrofuran-2-carboxamido)picolinamide]",< 10
7,"C[C@H]1[C@@H](c2ccc(F)c(F)c2OCC2(CO)CC2)[C@H](C(=O)Nc2ccnc(C(N)=O)c2)O[C@@]1(C)C(F)(F)F [Compound 95, 4-((2R,3S,4S,5R)-3-(3,4-difluoro-2-((1-(hydroxymethyl)cyclopropyl)methoxy)phenyl)-4,5-dimethyl-5-(trifluoromethyl)tetrahydrofuran-2-carboxamido)picolinamide]",< 10
8,"CC1C(c2ccc(F)c(F)c2OCC2CC(C)(O)C2)C(C(=O)Nc2ccnc(C(N)=O)c2)OC1(C)C(F)(F)F (single isomer, unassigned) [Compound 200, rel-4-((2R*,3S*,4S*,5R*)-3-(3,4-difluoro-2-(((1s,3R)-3-hydroxy-3-methylcyclobutyl)methoxy)phenyl)-4,5-dimethyl-5-(trifluoromethyl)tetrahydrofuran-2-carboxamido)picolinamide]",10 to 100
9,"C[C@H]1[C@@H](c2ccc(F)c(F)c2OCCNCC(F)F)[C@H](C(=O)Nc2ccnc(C(N)=O)c2)O[C@@]1(C)C(F)(F)F [Compound 112, 4-((2R,3S,4S,5R)-3-(2-(2-((2,2-difluoroethyl)amino)ethoxy)-3,4-difluorophenyl)-4,5-dimethyl-5-(trifluoromethyl)tetrahydrofuran-2-carboxamido)picolinamide]",< 10
10,C=C(CO)COc1c([C@H]2[C@H](C(=O)Nc3ccnc(C(N)=O)c3)O[C@@](C)(C(F)(F)F)[C@H]2C)ccc(F)c1F [Compound 132],< 10
11,"COc1c(C2C(C(=O)Nc3ccnc(C(=O)N4CCC(N(C)C)C4)c3)OC(C)(C(F)(F)F)C2C)ccc(F)c1F (single isomer, unassigned) [Compound 265, rel-(2R*,3S,*4S*,5R*)-3-(3,4-difluoro-2-methoxyphenyl)-N-(2-(3-(dimethylamino)pyrrolidine-1-carbonyl)pyridin-4-yl)-4,5-dimethyl-5-(trifluoromethyl)tetrahydrofuran-2-carboxamide]",< 10
